{"source": "patent US6989375B2", "about": "“Enhanced expression of transgenes” (priority 1996, dated 2006)", "key": {"[1]": {"tested_on": "A549", "test": "β-gal expression by X-gal staining after Ad/CMV/β-gal infection of CDDP-treated cells", "format": "cell-based, human", "details": "gene transfer 48 hours after exposure to 0.062 μg/ml of CDDP; MOI=10", "experimental": "(§1) The human non-small cell lung carcinoma cell lines H1299 and H460 were grown in RPMI-1640 medium supplemented with 5% heat-inactivated fetal calf serum (FCS), 10 mM glutamine, 100 units/ml of penicillin, 100 μg/ml of streptomycin and 0.25 μg/ml of amphotericin B. Human non-small cell lung carcinoma cell lines H358, H226br, and the cervical cancer cell line SiHa were maintained in complete RPMI-1640 medium supplemented with 10% FCS. The cell line A549 (human, non-small cell lung carcinoma) was grown in Ham's F12 nutrient mixture solution (Gibco BRL, Gaithersburg, Md.) similarly supplemented with antibiotics, glutamine and 10% FCS.\n(§2) Gene Delivery Protocol: In vitro gene delivery was performed by incubating cells in six-well plates (Falcon Plastics, Lincoln Park, N.J.) for two hours with Adv/CMV/β-gal in appropriate medium supplemented with 2% FCS. The multiplicity of infection (MOI: number of viral particles per target cell) was based on cell counts of untreated wells. Fresh, complete medium with the appropriate concentration of FCS was then added to the wells at the end of the infection period and cells were then incubated for 20 hours at 37° C., 5% CO2. […] The transduction efficiency by Adv/CMV/β-gal was determined by the percentage of positive stained cells (blue) for β-galactosidase activity (1000 cells counted per well)."}, "[2]": {"tested_on": "H1299 cells", "test": "β-gal expression by X-gal staining after Ad/CMV/β-gal infection of agent-treated cells", "format": "cell-based, human", "experimental": "Gene Delivery Protocol: In vitro gene delivery was performed by incubating cells in six-well plates (Falcon Plastics, Lincoln Park, N.J.) for two hours with Adv/CMV/β-gal in appropriate medium supplemented with 2% FCS. The multiplicity of infection (MOI: number of viral particles per target cell) was based on cell counts of untreated wells. Fresh, complete medium with the appropriate concentration of FCS was then added to the wells at the end of the infection period and cells were then incubated for 20 hours at 37° C., 5% CO2. After washing the cells with ice cold PBS, the cells were fixed with ice-cold 1.25% glutaraldehyde and stained with X-gal (5-bromo-4-chloro-3-indolyl-β-d-galactoside; Gibco BRL) as previously described (MacGregor et al., 1987). The transduction efficiency by Adv/CMV/β-gal was determined by the percentage of positive stained cells (blue) for β-galactosidase activity (1000 cells counted per well).\nTime Course and Dose Response: To determine the time course of enhancement, H1299 and H460 cells were seeded in 6-well plates (2×10^5 cells/2 mls/well). After an overnight incubation period (37° C., 5% CO2), the initial medium was replaced with freshly prepared media (2 ml) containing 0.062 μg/ml CDDP (Sigma Chemicals, St. Louis, Mo.) (CDDP was prepared fresh by dissolving in distilled water) and the cells were then incubated for 24 hours at 37° C., with 5% CO2. CDDP-treated cells were then washed twice with PBS and subsequently infected with Ad/CMV/β-gal (MOI=1 for H1299 and MOI=5 for H460) on days 0, 1, 2, 3, 4, 5 or 6 following CDDP removal, to determine the time point at which maximal enhancement of expression was occurring. To establish the dose of CDDP needed to produce maximum enhancement, the cells were treated with different concentrations of CDDP (serial, 1:4 dilutions, ranging from 4 μg/ml to 0.0002 μg/ml, 5 ml per 60 mm dish) for 24 hours and subsequently incubated with Ad/CMV/β-gal 48 hours after removal of CDDP. To study if exposure of malignant cells to different classes of antineoplastic agents would lead to a similar elevation of gene expression, H1299 cells were treated with vincristine (Eli Lilly and Co, Indianapolis, Ind.), methotrexate (Lederle Pharmaceuticals, Pearl River, N.Y.), 5-fluorouracil (SoloPak Laboratories, Elk Grove Village, Ill.), epotoside (Bristol Laboratories, Princeton, N.J.) and transplatin (the isomer of CDDP that has no anticancer activity, Sigma Chemical, St. Louis, Mo.) in the similar fashion as CDDP treatment and then infected with Ad/CMV/β-gal 48 hours after removal of drug-containing media. H1299 cells were treated with 2, 4, 8, or 16 Grey (Gy) of ionizing irradiation and then similarly infected 72 hours after irradiation. Untreated cells that were similarly infected, served as controls."}, "[3]": {"tested_on": "primary human foreskin fibroblasts", "details": "16 to 20 hours exposure to high concentrations, followed immediately by transduction; cited from earlier work"}, "[4]": {"tested_on": "primary normal human bronchial epithelial (NHBE) cells", "test": "β-gal expression by X-gal staining after Ad/CMV/β-gal infection of CDDP-treated normal cells", "format": "cell-based", "details": "CDDP 0.062 μg/ml; 90% confluent", "experimental": "as §1, §2"}, "[5]": {"tested_on": "H1299 cells", "test": "In situ TUNEL assay for apoptosis", "format": "cell-based, human", "details": "CDDP = prior CDDP treatment, Ad/CMV/p53 = not exposed to CDDP", "experimental": "CDDP-treated or control H1299 cells were fixed in 50% acetone/ethanol for 20 minutes at −20° C. 12 hrs and 24 hrs after transfection with Adv/CMV/p53 (MOI=5). In situ TdT (terminal deoxynucleotidyl transferase)-mediated dUTP-biotin nick end-labeling (TUNEL) assay was performed according to the procedure described elsewhere (Gavrieli et al., 1992). H1299 cells used as positive controls were treated with DNAse I (Gibco BRL, Gaithersburg, Md.), for 1 hr at 37° C. (50 μg/ml in 10 mM Tris-HCI pH=7.5; 140 mM sodium cacodylate, 4 mM MgCl2, 10 mM dithiothreitol)."}, "[6]": {"tested_on": "H460 cells", "test": "Cell growth after 24-hour incubation with CDDP", "format": "cell-based, human"}}, "data": [{"smiles": "N.N.[Cl][Pt][Cl]", "note": "[CDDP, cis-dichlorodimminocisplatin]", "values": [{"measurement": "Magnitude of maximal enhancement of transgene expression (FIG. 4B)", "setting": "[1]", "value": 1.6, "unit": "fold"}, {"measurement": "CDDP concentration at which maximal enhancement of β-gal gene expression occurred", "setting": "[2]; 24 h exposure, infected 48 hours after CDDP removal", "value": 0.062, "unit": "µg/mL"}, {"measurement": "Time of gene transfer after drug treatment for maximal enhancement", "setting": "[2]; CDDP 0.062 μg/ml", "value": "about 48 hours"}, {"measurement": "Enhancement of β-gal gene expression", "setting": "[2]; CDDP at 0.0039 and 1 μg/ml, infected 48 hours after CDDP removal", "value": "also an enhancement"}, {"measurement": "Enhancement of β-gal expression (FIG. 3)", "setting": "[2]; drugs at 0.062 μg/ml or irradiated with 8 Greys, stained 24 hrs after infection", "value": "Enhancement of β-gal expression was observed"}, {"measurement": "Magnitude of maximal enhancement of transgene expression (FIG. 4B)", "setting": "[2]; gene transfer 48 hours after exposure to 0.062 μg/ml of CDDP", "value": 2.7, "unit": "fold"}, {"measurement": "Susceptibility to AAV transduction", "setting": "[3]", "value": "more susceptible to transduction"}, {"measurement": "Enhancement of gene expression in stationary normal cells", "setting": "[4]", "value": "failed to enhance gene expression"}, {"measurement": "Apoptosis (TUNEL-positive cells)", "setting": "[5]; 12 hrs after Ad/CMV/p53 transfection (MOI=5)", "value": "much higher frequency than in untreated cells"}, {"measurement": "Apoptosis (TUNEL-positive cells)", "setting": "[5]; 24 hrs after Ad/CMV/p53 transfection (MOI=5)", "value": "almost all CDDP-treated cells stained positive for DNA fragmentation"}, {"measurement": "Cell growth, initial response", "setting": "[6]; CDDP at 1 and 4 μg/ml for 24 hours, cells viable by trypan blue exclusion", "value": "significant depression of growth to complete inhibition of proliferation"}, {"measurement": "Cell growth compared to control cell populations", "setting": "[6]; CDDP concentrations lower than 0.25 μg/ml", "value": "remained unchanged"}]}]}
